The values that follow come from patent US7786041B2, “Synergistic crop plant-compatible herbicidal compositions comprising herbicides from the group of the benzoylcyclohexanediones” (priority 2005, dated 2010).

The test system of one series is corn. Put plainly: Post-emergence damage to corn, second test series. The following applies: in vivo. How it is done:
(§1) Seeds of monocotyledonous and dicotyledonous weed and crop plants are placed into sandy loam in wood fiber pots or in plastic pots, covered with soil and cultivated in a greenhouse, including during the vegetation period outdoors outside of the greenhouse, under good growth conditions. 2-3 weeks after sowing, the test plants are treated at the one- to three-leaf stage. The test compounds, formulated as wettable powders (WP) or liquid (EC) are, in various dosages with a water application rate of 300 l/ha (converted), with added wetting agent (0.2 to 0.3%), sprayed onto the plants and the surface of the soil. 3 to 4 weeks after the treatment of the test plants, the effect of the preparations is rated visually in comparison to untreated controls (herbicidal effect in percent (%): 100% effect=plants have died, 0% effect=like control plants).
(§2) In a second test series, the herbicidal action and the damage to corn of the compositions according to the invention (A+Bx+C1) was compared to that of the herbicide alone (A) and to that of a herbicidal composition (A+C1) known from the prior art.

For series [1], the system named is harmful plants Abutilon theophrasti, Ambrosia elatior, Digitaria sanguinalis, Echinochloa crus galli, Pharbitis purpureum, Fallopia convolvulus, Setaria …. Briefly: Herbicidal post-emergence action, second test series, mean over ten harmful plants. The class given is in vivo. The note with it: Table 5, mean value of the herbicidal actions against ten harmful plants, each herbicide 200 g of a.i./ha, safener C1 100 g of a.i./ha. On the procedure:
as §1, §2

With `CS(=O)(=O)c1ccc(C(=O)C2C(=O)CCCC2=O)c(Cl)c1COCC(F)(F)F` [A], the Damage to corn in the series on corn is on record as 11%. For the same molecule, the Herbicidal action in series [1] worked out at 86%.
